Data from PubChem BioAssay AID330 (DTP/NCI, 2004).
Where “and” joins values, the source holds several entries; their conditions need not be identical. Equal entries are not always repeated. Toxic doses and inconclusive results are not listed. Rule for the calls: active = survival T/C of 150% or more; inactive = T/C below 125% in these data.

Tested on: P388 leukemia ip, CD2F1 mice, survival T/C
Assay: NCI In Vivo Anticancer Drug Screen. Data for tumor model P388 Leukemia (intraperitoneal) in CD2F1 (CDF1) mice
Details: endpoint: median survival time, higher = longer survival
Outline: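 Mice carrying the transplanted tumor received test compound or vehicle. Survival was recorded in each group, and the value is the treated-group measurement divided by that of the vehicle-treated control group.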

[1] = dose: 60.0 mg/kg/injection, schedule: Q01DX005 (ip), vehicle: saline with Tween-80
[2] = dose: 120.0 mg/kg/injection, schedule: Q01DX005 (ip), vehicle: saline with Tween-80
[3] = dose: 240.0 mg/kg/injection, schedule: Q01DX005 (ip), vehicle: saline with Tween-80
[4] = dose: 25.0 mg/kg/injection, schedule: Q01DX009 (ip), vehicle: saline with Tween-80
[5] = dose: 50.0 mg/kg/injection, schedule: Q01DX009 (ip), vehicle: saline with Tween-80
[6] = dose: 100.0 mg/kg/injection, schedule: Q01DX009 (ip), vehicle: saline with Tween-80
[7] = dose: 200.0 mg/kg/injection, schedule: Q01DX009 (ip), vehicle: saline with Tween-80
[8] = dose: 100.0 mg/kg/injection, schedule: Q01DX001 (ip), vehicle: saline with Tween-80
[9] = dose: 200.0 mg/kg/injection, schedule: Q01DX001 (ip), vehicle: saline with Tween-80
[10] = dose: 400.0 mg/kg/injection, schedule: Q01DX001 (ip), vehicle: saline with Tween-80
[11] = dose: 50.0 mg/kg/injection, schedule: Q01DX009 (ip), vehicle: Klucel (hydroxypropylcellulose) (HPC)
[12] = dose: 100.0 mg/kg/injection, schedule: Q01DX009 (ip), vehicle: Klucel (hydroxypropylcellulose) (HPC)
[13] = dose: 200.0 mg/kg/injection, schedule: Q01DX009 (ip), vehicle: Klucel (hydroxypropylcellulose) (HPC)
[14] = dose: 50.0 mg/kg/injection, schedule: Q01DX009 (ip), vehicle: saline
[15] = dose: 100.0 mg/kg/injection, schedule: Q01DX009 (ip), vehicle: saline
[16] = dose: 100.0 mg/kg/injection, schedule: Q04DX003 (ip), vehicle: saline
[17] = dose: 200.0 mg/kg/injection, schedule: Q04DX003 (ip), vehicle: saline
[18] = dose: 400.0 mg/kg/injection, schedule: Q04DX003 (ip), vehicle: saline
[19] = dose: 50.0 mg/kg/injection, schedule: Q01DX005 (ip), vehicle: Klucel (hydroxypropylcellulose) (HPC)
[20] = dose: 100.0 mg/kg/injection, schedule: Q01DX005 (ip), vehicle: Klucel (hydroxypropylcellulose) (HPC)
[21] = dose: 200.0 mg/kg/injection, schedule: Q01DX005 (ip), vehicle: Klucel (hydroxypropylcellulose) (HPC)

Measured: T/C

CN(C)c1ccc2nc3c(cc(Nc4cccc5cccc(Nc6cc7ccccc7c7nc8ccc(N(C)C)cc8[o+]c67)c45)c4ccccc43)[o+]c2c1
inactive: [1] 90 % of control | [2] 100 % of control | [3] 91 % of control

ClCc1ccc2ccc3ccc(CCl)nc3c2n1
inactive: [1] 103 % of control | [2] 100 % of control | [3] 104 % of control

CC(C)C(=O)CCC(C)C1CCC2(C)C3CC=C4C(CCC(O)C4(C)C)C3(C)C(=O)CC12C (stereo not drawn)
inactive: dose: 100.0 mg/kg/injection, schedule: Q04DX002 (ip), vehicle: saline 100 % of control | dose: 200.0 mg/kg/injection, schedule: Q04DX002 (ip), vehicle: saline 98 % of control | dose: 400.0 mg/kg/injection, schedule: Q04DX002 (ip), vehicle: saline 99 % of control

CC(=O)c1ccc(N=C2C(=O)Nc3ccccc32)cc1
inactive: dose: 12.5 mg/kg/injection, schedule: Q01DX009 (ip), vehicle: saline with Tween-80 93 % of control | [4] 87 % of control | [5] 89 % of control and 96 % of control | [6] 105 % of control | [7] 116 % of control

CCCOC1C=C(C)C(=O)O1 (stereo not drawn)
inactive: dose: 40.5 mg/kg/injection, schedule: Q01DX005 (ip), vehicle: saline with Tween-80 103 % of control | dose: 81.0 mg/kg/injection, schedule: Q01DX005 (ip), vehicle: saline with Tween-80 104 % of control | dose: 162.0 mg/kg/injection, schedule: Q01DX005 (ip), vehicle: saline with Tween-80 112 % of control

O=C1C(c2ccccc2)=S=C2Sc3ccccc3N12
inactive: [5] 105 % of control | [6] 102 % of control | [7] 95 % of control

Nc1nc(-c2ccccn2)cc2ccc(Cl)cc12
inactive: [8] 101 % of control | [9] 104 % of control | [10] 104 % of control

N#CSc1c(-c2ccccc2)c2c(N)[nH]c(=O)nc2[nH]c1=O
inactive: dose: 15.0 mg/kg/injection, schedule: Q01DX005 (ip), vehicle: saline with Tween-80 107 % of control | dose: 30.0 mg/kg/injection, schedule: Q01DX005 (ip), vehicle: saline with Tween-80 99 % of control | [1] 90 % of control

CC1OC(OC2C(OC3C[C@@]4(C)C(C[C@H](O)[C@H]5[C@H](C6(C)CCC(C(C)(C)O)O6)CCC54C)[C@]4(C)CC[C@@H](O)C(C)(C)C34)OC(CO)C(O)C2O)C(O)C(O)C1O (stereo partly drawn) (tested in a mixture with another compound)
inactive: [11] 101 % of control | [12] 101 % of control | [13] 94 % of control

CNC(=S)N/N=C/c1ccccc1
inactive: [4] 110 % of control | [5] 112 % of control | [14] 100 % of control | [6] 117 % of control | [15] 105 % of control | [7] 100 % of control | dose: 200.0 mg/kg/injection, schedule: Q01DX009 (ip), vehicle: saline 100 % of control

N#Cc1ccc(NN=NCCCl)cc1
inactive: dose: 12.5 mg/kg/injection, schedule: Q01DX009 (ip), vehicle: distilled water + Tween-80 114 % of control | dose: 12.5 mg/kg/injection, schedule: Q01DX009 (ip), vehicle: distilled water + alcohol 95 % of control | dose: 25.0 mg/kg/injection, schedule: Q01DX009 (ip), vehicle: distilled water + alcohol 91 % of control | dose: 50.0 mg/kg/injection, schedule: Q01DX009 (ip), vehicle: distilled water + alcohol 97 % of control | dose: 100.0 mg/kg/injection, schedule: Q01DX009 (ip), vehicle: distilled water + Tween-80 87 % of control | dose: 100.0 mg/kg/injection, schedule: Q01DX009 (ip), vehicle: distilled water + alcohol 88 % of control

c1ccc(N2CCCN2c2ccccc2)cc1
inactive: dose: 100.0 mg/kg/injection, schedule: Q04DX002 (ip), vehicle: saline with Tween-80 101 % of control | dose: 200.0 mg/kg/injection, schedule: Q04DX002 (ip), vehicle: saline with Tween-80 99 % of control | dose: 400.0 mg/kg/injection, schedule: Q04DX002 (ip), vehicle: saline with Tween-80 98 % of control

CCCCCCCNN=NCC(C)C(C)CC (stereo not drawn)
inactive: [16] 95 % of control | [17] 95 % of control | [18] 97 % of control

CCCNCc1cccc2ccnc(C)c12
inactive: dose: 50.0 mg/kg/injection, schedule: Q01DX005 (ip), vehicle: saline 109 % of control | dose: 100.0 mg/kg/injection, schedule: Q01DX005 (ip), vehicle: saline 104 % of control | dose: 200.0 mg/kg/injection, schedule: Q01DX005 (ip), vehicle: saline 101 % of control

Nc1nc[nH]c1-c1noc(=O)[nH]1
inactive: dose: 12.5 mg/kg/injection, schedule: Q01DX009 (ip), vehicle: saline 102 % of control | dose: 25.0 mg/kg/injection, schedule: Q01DX009 (ip), vehicle: saline 108 % of control | [14] 104 % of control and 112 % of control | [15] 110 % of control

CN1N=Cc2sc(Br)c(Br)c2B1O
inactive: [5] 94 % of control | [6] 101 % of control | [7] 94 % of control

CC(=O)O/N=C/c1ccncc1
inactive: dose: 25.0 mg/kg/injection, schedule: Q04DX003 (ip), vehicle: saline 108 % of control | dose: 50.0 mg/kg/injection, schedule: Q04DX003 (ip), vehicle: saline 101 % of control | [16] 107 % of control | [17] 109 % of control | [18] 117 % of control

Cc1cc2c(cc1NCc1ccccc1)C(C)C(=O)CCC(=O)N2Cc1ccccc1 (stereo not drawn)
inactive: dose: 12.5 mg/kg/injection, schedule: Q01DX005 (ip), vehicle: saline with Tween-80 101 % of control | dose: 25.0 mg/kg/injection, schedule: Q01DX005 (ip), vehicle: saline with Tween-80 99 % of control | dose: 50.0 mg/kg/injection, schedule: Q01DX005 (ip), vehicle: saline with Tween-80 90 % of control and 94 % of control

CC(C)(F)c1nc2cc3ccccc3cc2[nH]c1=O
inactive: [8] 98 % of control | [9] 90 % of control

N=Nc1c(OC(=O)Nc2ccccc2)[nH]c2ccccc12
inactive: [19] 90 % of control | [20] 90 % of control | [21] 87 % of control

C=C(NC(=O)c1csc(-c2nc3c(cc2O)-c2nc(cs2)C(=O)NC(C(C)O)C(=O)N/C(=C\C)c2nc(cs2)C(=O)NC2CC(O)C(=O)OCc4cccc5[nH]c(c(C)c45)C(=O)SCC(NC(=O)c4csc2n4)c2nc-3cs2)n1)C(N)=O (stereo not drawn)
inactive: dose: 15.0 mg/kg/injection, schedule: Q01DX009 (ip), vehicle: Klucel (hydroxypropylcellulose) (HPC) 100 % of control | dose: 30.0 mg/kg/injection, schedule: Q01DX009 (ip), vehicle: Klucel (hydroxypropylcellulose) (HPC) 99 % of control | dose: 60.0 mg/kg/injection, schedule: Q01DX009 (ip), vehicle: Klucel (hydroxypropylcellulose) (HPC) 91 % of control | dose: 120.0 mg/kg/injection, schedule: Q01DX009 (ip), vehicle: Klucel (hydroxypropylcellulose) (HPC) 88 % of control

O=[N+]([O-])c1ccc(SSc2ccc([N+](=O)[O-])cn2)nc1
inactive: [4] 104 % of control | [5] 86 % of control | [6] 95 % of control

O=C(O)c1cccc([N+](=O)[O-])c1O
inactive: [11] 102 % of control | [12] 105 % of control | [13] 101 % of control | dose: 400.0 mg/kg/injection, schedule: Q01DX009 (ip), vehicle: Klucel (hydroxypropylcellulose) (HPC) 100 % of control

CCCCCCCCCCCCCCCC(=O)Nc1cccc2c[n+](CC(=O)c3ccc(NC(=O)CCC(=O)OC)cc3)ccc12
inactive: [8] 90 % of control | [9] 86 % of control | [10] 109 % of control

CNC(=O)N(N=O)c1[nH]c(=O)ncc1Cl
inactive: [1] 116 % of control | [2] 116 % of control

O=C1CCc2cc([N+](=O)[O-])cc3c2N1CCC3
inactive: [19] 95 % of control and 96 % of control | [20] 104 % of control | [21] 98 % of control and 96 % of control

c1ccc2c(c1)NCCOCCNc1ccccc1OCCNCCO2
inactive: dose: 25.0 mg/kg/injection, schedule: Q01DX001 (ip), vehicle: saline with Tween-80 100 % of control | dose: 50.0 mg/kg/injection, schedule: Q01DX001 (ip), vehicle: saline with Tween-80 96 % of control | [8] 89 % of control and 92 % of control
